Measurements published in patent publication US20210077570A1, “COMPOSITION COMPRISING A POLYMYXIN AND TEICOPLANIN” (GALENUS G.H. AG, priority 2018, published 2021).
Where two headings read alike, the source gives them in different places. Positions of bridges follow the written chain, without caps; N, C: chain ends. Non-standard residues stand in square brackets, D forms with d. Residues, ends and D or L forms follow the SMILES beside them. *: point of attachment. Heptanoyl(5-Me) = CCC(C)CCCC(=O)*; Dab = NCC[C@H](N)C(=O)O

Legend:
[1] = tested on: A. junii 1397597; test: Checkerboard analysis MIC/FIC and MBC/FBC, colistin sulphate plus teicoplanin; format: cell-based; conditions: agent alone, CAMHB, inoculum 5*10^5 CFU/ml; for MBC: A. junii; for MIC: A. junii 1397597, 24 h
Description: (§1) Checkerboard analysis to determine minimal inhibitory concentration (MIC)/fractional inhibitory concentration (FIC) and minimal […] (MBC)/fractional […] (FBC) values of colistin sulphate (CS) plus teicoplanin (TP) for 6 Gram-negative strains with a bacterial load 5(1−10)*10^5 CFU/ml in a cation-adjusted Mueller-Hinton broth (CAMHB). • a. Antimicrobial stock solutions were prepared using sterile distilled water • b. CS was added along the ordinate; TP was added along the abscissa to 96 well, flat bottom, polystyrene panels with no treatment. Colistin alone was tested in triplicates. • c. Serial 2-fold dilutions starting with 640 μg/ml CS and 640 μg/ml TP were made; 15 μl volume of the serial dilutions were added for each agent to the appropriate wells; final volume at 30 μl • d. For each agent tested alone an additional 15 μl media was added to the well. 30 μl were added in control wells where none of the agent was tested. The negative control well contains 150 μl media without any additions • e. From an overnight bacterial culture in tryptic soy broth, 100 μl was added to 10 mL of fresh tryptic soy broth. This was then incubated at 37° C. for 1.5 hour at 180 rpm. • f. Bacteria in 120 μl CAMHB were added to each well (end concentration 5(1−10)*10^5 CFU/ml) • g. Plates were incubated at 37° C. in an ambient air incubator for 24 h • h. Turbidity at OD600 is determined with a plate photometer • i. By using a one-time inoculator 3 μl from each well of the 96-well plate were transferred to three blood agar plates. The plates were incubated over night at 37° C. in an ambient air incubator • j. MIC values are defined as lowest concentration which restricts bacterial growth to OD600≤0.1 • k. MBC values were determined by visual reading the lowest concentration which inhibits 99.9% of the growth of bacteria in the wells • l. Determination of the fractional inhibitory concentration (FIC) index and fractional bactericidal concentration (FBC) index and characterization of antimicrobial interactions was assessed • FIC calculation was carried out as: (MIC of drug A, tested in combination)/(MIC of drug A, tested alone)+(MIC of drug B, tested in combination)/(MIC of drug B, tested alone). FBC calculation was carried out just as well • Interactive categories were calculated from checkerboard analysis using MIC results from testing each agent alone and MIC results from the combination wells adjacent to the wells with growth in them […]
b. Indifference; FIC/FBC>0.5 to <4.0 c. Antagonism; FIC/FBC≥4.0 a. A. junii 1391597 (IHMA), colistin resistant

[2] = tested on: non-multiplying stationary phase bacteria; test: Elimination of dormant (resistant) bacteria, long term non-multiplying stationary phase model; format: cell-based; conditions: nutrient depleted 5-6 day stationary phase cell suspension in PBS
Description: In order to test the elimination of dormant (resistant) bacteria the long term non-multiplying stationary phase model is used (Hu et al 2010 [18]). Long-term stationary phase cultures of 5 to 6 days are chosen with the test strains as described above. These late stationary phase cultures, may represent a mixed population with a dynamic balance of cell division and cell death. In order to induce the bacterial cells into a non-replicating stage, the cells are washed and incubated with PBS. […] The nutrient depleted 5-6 day stationary phase cell suspension now called non-multiplying stationary phase bacteria is used to test TEC and CS as mono substances or in combinations with the concentrations as mentioned above.

[3] = tested on: S. maltophilia 1221783; test: Checkerboard analysis MIC/FIC and MBC/FBC, colistin sulphate plus teicoplanin; format: cell-based, Stenotrophomonas maltophilia; conditions: agent alone, CAMHB, inoculum 5*10^5 CFU/ml; for MIC: S. maltophilia 1221783, 24 h; for MBC: S. maltophilia, first line of Table 2 (1221783 by order)
Description: as §1
b. Indifference; FIC/FBC>0.5 to <4.0 c. Antagonism; FIC/FBC≥4.0 […]
e. Stenotrophomonas maltophilia 1221783 (IHMA), colistin susceptible

[4] = tested on: A. haemolyticus 1655843; test: as above; format: cell-based; conditions: agent alone, CAMHB, inoculum 5*10^5 CFU/ml; for MBC: A. haemolyticus
Description: as §1, with “By using a one-time inoculator 3 μl from each well of the 96-well plate were transferred to three blood agar plates. The plates were incubated over night at 37° C. in an ambient air incubator • j. MIC values are defined as lowest concentration which restricts bacterial growth to OD600≤0.1 • k. MBC values were determined by visual reading the lowest concentration which inhibits 99.9% of the growth of bacteria in the wells • l.” left out

[5] = tested on: stationary bacteria from biofilm; test: Elimination of stationary bacteria from biofilm (catheter piece in CAMHB); format: cell-based; conditions: for Elimination of bacteria from biofilm: conclusion, TEC alone in case a Gram-positive strain is tested; for Colony counts, incubated with as compared without a catheter piece / Increase (at least two dilution steps) of MIC, incubated with as compared without a catheter piece: tubes showing no gross turbidity; for Colony counts, incubated with as compared without a catheter piece: after centrifugation, any of the strains tested, TEC mono in case a Gram-positive strain is tested; for Increase (at least two dilution steps) of MIC, incubated with as compared without a catheter piece: MIC of CS, or of TEC in case a Gram-positive strain is tested
Description: To test the elimination of stationary bacteria from biofilm in vitro in CAMHB comparing combination versus monotherapy the same teicoplanin and colistin (serum) concentrations derived from pharmacokinetic studies are used as above.
Each of the total 16 sets as above is performed in duplicates. Each tube is filled with 5 ml CAMHB and in one of each duplicates a 2 cm long piece of a plastic catheter is inserted. Then all tubes are inoculated with the test strain and incubated aerobically at ambient air at 37° C. overnight (16-24 h). The tubes are removed from the incubator and the appropriate blank, mono or combination drug concentrations to be tested are added to each tube and the tubes are incubated aerobically at ambient air at 37° C. for an additional 24 h. The tubes are removed from the incubator and vortexed for about 10 min. Thereafter the catheter pieces from the corresponding one of the duplicates are removed.
From tubes showing growth with turbidity the MIC of CS or TEC in case of testing Gram-positive bacteria for the test strains is determined as above and compared to the original MIC. All tubes showing growth or no growth according to turbidity are centrifuged for 10 min at 3000 rpm and about 100 μL of the sediment is transferred onto IsoSensitest agar plate supplemented with 5% blood (Oxoid) and containing concentrations of CS of 4 mg/L, 8 mg/L, 16 mg/L, and 32 mg/L—or TEC of 4 mg/L, 8 mg/L, 16 mg/L in case a Gram-positive strain is tested. After overnight incubation the number of CFUs growing on the plates containing different CS concentrations—or TEC concentrations in case a Gram-positive strain is tested—are counted.

[6] = tested on: A. guillouiae 1285286; test: Checkerboard analysis MIC/FIC and MBC/FBC, colistin sulphate plus teicoplanin; format: cell-based; conditions: agent alone, CAMHB, inoculum 5*10^5 CFU/ml; for MIC: A. guillouiae 1285286, 24 h; for MBC: A. guillouiae
Description: as §1
b. Indifference; FIC/FBC>0.5 to <4.0 c. Antagonism; FIC/FBC≥4.0 d. A. guillouiae 1285286 (IHMA), colistin resistant

[7] = tested on: A. nosocomialis 1461911; test: as above; format: cell-based; conditions: agent alone, CAMHB, inoculum 5*10^5 CFU/ml; for MIC: A. nosocomialis 1461911, 24 h; for MBC: A. nosocomialis
Description: as §1
b. Indifference; FIC/FBC>0.5 to <4.0 c. Antagonism; FIC/FBC≥4.0 b. A. nosocomialis 1461911 (IHMA), colistin resistant

[8] = tested on: S. maltophilia 1237289; test: as above; format: cell-based, Stenotrophomonas maltophilia; conditions: agent alone, CAMHB; for MIC: S. maltophilia 1237289; for MBC: S. maltophilia, second line of Table 2 (1237289 by order)
Description: Checkerboard analysis to determine minimal inhibitory concentration (MIC)/fractional inhibitory concentration (FIC) and minimal […] (MBC)/fractional […] (FBC) values of colistin sulphate (CS) plus teicoplanin (TP) for 6 Gram-negative strains with a bacterial load 5(1−10)*10^5 CFU/ml in a cation-adjusted Mueller-Hinton broth (CAMHB). • a. Antimicrobial stock solutions were prepared using sterile distilled water • b. CS was added along the ordinate; TP was added along the abscissa to 96 well, flat bottom, polystyrene panels with no treatment. Colistin alone was tested in triplicates. • c. Serial 2-fold dilutions starting with 640 μg/ml CS and 640 μg/ml TP were made; 15 μl volume of the serial dilutions were added for each agent to the appropriate wells; final volume at 30 μl • d. For each agent tested alone an additional 15 μl media was added to the well. 30 μl were added in control wells where none of the agent was tested. The negative control well contains 150 μl media without any additions • e. From an overnight bacterial culture in tryptic soy broth, 100 μl was added to 10 mL of fresh tryptic soy broth. This was then incubated at 37° C. for 1.5 hour at 180 rpm. • f. Bacteria in 120 μl CAMHB were added to each well (end concentration 5(1−10)*10^5 CFU/ml) • g. Plates were incubated at 37° C. in an ambient air incubator for 24 h • h. Turbidity at OD600 is determined with a plate photometer • i. By using a one-time inoculator 3 μl from each well of the 96-well plate were transferred to three blood agar plates. The plates were incubated over night at 37° C. in an ambient air incubator • j. MIC values are defined as lowest concentration which restricts bacterial growth to OD600≤0.1 • k. MBC values were determined by visual reading the lowest concentration which inhibits 99.9% of the growth of bacteria in the wells • l. Determination of the fractional inhibitory concentration (FIC) index and fractional bactericidal concentration (FBC) index and characterization of antimicrobial interactions was assessed • FIC calculation was carried out as: (MIC of drug A, tested in combination)/(MIC of drug A, tested alone)+(MIC of drug B, tested in combination)/(MIC of drug B, tested alone). FBC calculation was carried out just as well • Interactive categories were calculated from checkerboard analysis using MIC results from testing each agent alone and MIC results from the combination wells adjacent to the wells with growth in them
b. Indifference; FIC/FBC>0.5 to <4.0
c. Antagonism; FIC/FBC≥4.0

[9] = cited from earlier work

In the case of `CCC(C)CCCC(=O)N[C@@H](CCN)C(=O)N[C@H](C(=O)N[C@@H](CCN)C(=O)N[C@H]1CCNC(=O)[C@H]([C@@H](C)O)NC(=O)[C@H](CCN)NC(=O)[C@H](CCN)NC(=O)[C@H](CC(C)C)NC(=O)[C@@H](CC(C)C)NC(=O)[C@H](CCN)NC1=O)[C@@H](C)O` (stereo partly drawn) [CS, colistin sulphate] ({Heptanoyl(5-Me)}-[Dab]T[Dab][Dab][Dab][dL]L[Dab][Dab]T; lactam 4-C), the MBC ([1]; Acinetobacter junii, 1397597, read-out: MBC) is reported as 8 µg/mL, the MIC ([1]; Acinetobacter junii, read-out: MIC) is reported as 2 µg/mL and the “Elimination of non-multiplying stationary phase bacteria” value [2] is reported as “not as mono substances”. For the same compound, the MIC ([3]; Stenotrophomonas maltophilia, 1221783, 24 h, read-out: MIC) was 0.5 µg/mL, the MBC ([3]; Stenotrophomonas maltophilia, read-out: MBC) was 2 µg/mL and the MBC ([4]; Acinetobacter haemolyticus, 1655843, read-out: MBC) was > 16 µg/mL. The “Elimination of bacteria from biofilm” value [5] was “not so well the case”, the “Colony counts, incubated with as compared without a catheter piece” value [5] was “higher colony counts” and the “Increase (at least two dilution steps) of MIC, incubated with as compared without a catheter piece” value [5] was “about one third”. For the same compound, the MIC ([6]; read-out: MIC) was 2 µg/mL, the MBC ([6]; read-out: MBC) was 4 µg/mL and the MIC ([7]; Acinetobacter nosocomialis, 1461911, 24 h, read-out: MIC) was ≥ 4 µg/mL. The MBC ([7]; Acinetobacter nosocomialis, 1461911, read-out: MBC) was 8 µg/mL, the MIC ([8]; Stenotrophomonas maltophilia, inoculum 5*10^5 CFU/ml, 24 h, read-out: MIC) was 0.5 µg/mL and the MIC ([8]; Stenotrophomonas maltophilia, after 48 h growth (values in brackets), read-out: MIC) was 8 µg/mL. The MBC ([8]; Stenotrophomonas maltophilia, inoculum 5*10^5 CFU/ml, read-out: MBC) was 8 µg/mL.

For teicoplanin [TP], the “terminal half-life, median (range)” value ([9]; Antony et al 1991) is given as 168 (111-278) h, the “terminal half-life, mean (±SD)” value ([9]; Outman et al 1990) is given as 157 (±93) h and the MIC [1] is given as >64 µg/mL. For the same compound, the MBC [1] was >64 µg/mL, the “Elimination of non-multiplying stationary phase bacteria” value [2] was “not as mono substances” and the MIC [3] was >64 µg/mL. For the same compound, the MBC [3] was >64 µg/mL, the MIC ([4]; A. haemolyticus 1655843, 24 h) was >64 µg/mL and the MBC [4] was >64 µg/mL. For the same compound, the “Elimination of bacteria from biofilm” value [5] was “not so well the case”, the “Colony counts, incubated with as compared without a catheter piece” value [5] was “higher colony counts” and the “Increase (at least two dilution steps) of MIC, incubated with as compared without a catheter piece” value [5] was “about one third”. For the same compound, the MIC [6] was >64 µg/mL, the MBC [6] was >64 µg/mL and the MIC [7] was >64 µg/mL. For the same compound, the MBC [7] was >64 µg/mL, the MIC ([8]; inoculum 5*10^5 CFU/ml, 24 h) was >64 (>64) mg/l and the MIC ([8]; after 48 h growth (values in brackets)) was >64 (>64) mg/l. The MBC ([8]; inoculum 5*10^5 CFU/ml) was >64 µg/mL.
